This note sets out measurements from US20240417370A1, “LIPIDS FOR USE IN LIPID NANOPARTICLE FORMULATIONS” (Acuitas Therapeutics, Inc., priority 2023, published 2024).

In test [1] the test system is luciferase expression in the liver. As to the kind of experiment: Luciferase mRNA in vivo evaluation using lipid nanoparticle compositions. The settings on record: LNP-formulated lipid, tail vein injection, ng luciferase/g liver 4 hours after administration; for Liver Luc @ 0.3 mg/kg: 0.3 mg mRNA/kg; for Liver Luc @ 1.0 mg/kg: 1.0 mg mRNA/kg. Also on record: species or system mice. Here is the method:
(§1) A lipid of structure (I), DSPC, cholesterol and PEG-lipid are solubilized in ethanol at a molar ratio of 50:10:38.5:1.5 or 47.5:10:40.7:1.8. Lipid nanoparticles (LNP) are prepared at a total lipid to mRNA weight ratio of approximately 10:1 to 40:1. Briefly, the mRNA is diluted to 0.2 mg/mL in 10 to 50 mM citrate buffer, pH 4 to 6 or 10 to 25 mM acetate buffer, pH 4. Syringe pumps are used to mix the ethanolic lipid solution with the mRNA aqueous solution at a ratio of about 1:5 to 1:3 (vol/vol) with total flow rates above 15 mL/min. The ethanol is then removed, and the external buffer replaced with PBS by dialysis. Finally, the lipid nanoparticles are filtered through a 0.2 µm pore sterile filter.
Studies are performed in 6-8-week-old female C57BL/6 mice (Charles River) 8-10-week-old CD-1 mice (Charles River or Inotiv) according to guidelines established by an institutional animal care committee (ACC) and the Canadian Council on Animal Care (CCAC). Varying doses of mRNA-lipid nanoparticle are systemically administered by tail vein injection and animals euthanized at a specific time point (e.g., 4 hours) post-administration. Liver and spleen are collected in pre-weighed tubes, weights determined, immediately snap frozen in liquid nitrogen, and stored at −80° C. until processing for analysis.
For liver, approximately 50 mg is dissected for analyses in a 2 mL FastPrep tubes (MP Biomedicals, Solon OH). ¼″ ceramic sphere (MP Biomedicals) is added to each tube and 500-750 μL of Glo Lysis Buffer—GLB (Promega, Madison WI) equilibrated to room temperature is added to liver tissue. Liver tissues are homogenized with the FastPrep24 instrument (MP Biomedicals) at 2×6.0 m/s for 15 seconds. Homogenate is incubated at room temperature for 5 minutes prior to a 1:4 to 1:6 dilution in GLB and assessed using SteadyGlo Luciferase assay system (Promega). Specifically, 50 μL of diluted tissue homogenate is reacted with 50 μL of SteadyGlo substrate, shaken for 10 seconds followed by 5-minute incubation and then luminescence was quantitated using a FilterMax F5 Microplate Reader (Molecular Devices, USA). The amount of protein assayed is determined by using the BCA protein assay kit (Pierce, Rockford, IL). Relative luminescence units (RLU) were then normalized to total μg protein or weight (g) of tissue assayed. To convert RLU to ng luciferase a standard curve is generated with QuantiLum Recombinant Luciferase (Promega).
The FLuc mRNA (L-7202) from Trilink Biotechnologies will express a luciferase protein, originally isolated from the firefly, Photinus pyralis. Flue is commonly used in mammalian cell culture to measure both gene expression and cell viability. It emits bioluminescence in the presence of the substrate, luciferin. This capped and polyadenylated mRNA is modified with 5-methoxyuridine and optimized for mammalian systems.
(§2) Representative compounds of the disclosure shown in Table 2 were formulated using the following molar ratio: 50% cationic lipid/10% distearoylphosphatidylcholine (DSPC)/38.5% Cholesterol/1.5% PEG lipid 2-[2-(ω-methoxy(polyethyleneglycol2000)ethoxy]-N,N-ditetradecylacetamide) or 47.5% cationic lipid/10% DSPC/40.7% Cholesterol/1.8% PEG lipid. Relative activity was determined by measuring luciferase expression in the liver 4 hours following administration via tail vein injection as described in Example 1 or by measuring the amount of human IgG in mouse serum as described in example 2. The activity was compared at a dose of 1.0 or 0.5 or 0.3 mg mRNA/kg and expressed as ng luciferase/g liver measured 4 hours after administration, as described in Example 1 or as μg IgG/mL serum measured 24 hours after administration, as described in Example 2. Compound numbers in Table 2 refer to the compound numbers of Table 1.

The test system of test [2] is human IgG in mouse serum. In words: Immunoglobulin G (IgG) mRNA in vivo evaluation using lipid nanoparticle compositions. The settings on record: LNP-formulated lipid, tail vein injection, μg IgG/mL serum 24 hours after administration; for Serum IgG @ 0.3 mg/kg: 0.3 mg mRNA/kg; for Serum IgG @ 1.0 mg/kg: 1.0 mg mRNA/kg. On the set-up: species or system mice. Here is the method: as §1, with “4 to 6.” for “4.”
Studies are performed in 6-8-week-old CD-1/ICR mice (Envigo, Charles River, or Inotiv) according to guidelines established by an institutional animal care committee (ACC) and the Canadian Council on Animal Care (CCAC). Varying doses of mRNA-lipid nanoparticle are systemically administered by tail vein injection and animals euthanized at a specific time point (e.g., 24 hours) post-administration. The whole blood is collected, and the serum subsequentially separated by centrifuging the tubes of the whole blood at 2000×g for 10 minutes at 4° C. and stored at −80° C. until use for analysis.
For immunoglobulin G (IgG) ELISA (Life Diagnostics Human IgG ELISA kit), the serum samples are diluted at 100 to 20,000 folds with 1× diluent solution. 100 μL of diluted serum is dispensed into anti-human IgG coated 96-well plate in duplicate alongside human IgG standards and incubated in a plate shaker at 150 rpm at 25° C. for 45 minutes. The wells are washed 5 times with 1× wash solution using a plate washer (400 μL/well). 100 μL of HRP conjugate is added into each well and incubated in a plate shaker at the same condition above. The wells are washed 5 times again with 1× wash solution using a plate washer (400 μL/well). 100 μL of TMB reagent is added into each well and incubated in a plate shaker at the same condition above. The reaction is stopped by adding 100 μL of Stop solution to each well. The absorbance is read at 450 nm (A450) with a microplate reader. The amount of human IgG in mouse serum is determined by plotting A450 values for the assay standard against human IgG concentration.
as §2

Each structure is given as a SMILES string.

In the case of `CCCCCCCCCCN(CCCCCCCCCC)C(=O)CCCCCCCN(CCCCCCCC(=O)N(CCCCCCCCCC)CCCCCCCCCC)C[C@H]1C[C@H](O)C1` [(1R, 3R) I-2, 8,8′-((((1R,3R)-3-hydroxycyclobutyl)methyl)azanediyl)bis(N,N-didecyloctanamide)], in test [1], the “Liver Luc @ 0.3 mg/kg” value is listed as 12651 ± 3017 ng/g and the “Liver Luc @ 1.0 mg/kg” value is 82113 ± 14450 ng/g.

In the case of `CCCCCCCCCCN(CCCCCCCCCC)C(=O)CCCCCCCN(CCCCCCCC(=O)N(CCCCCCCCCC)CCCCCCCCCC)CC[C@H]1C[C@@H](O)C1` [(1S, 3R) I-1, 8,8′-((2-((1S,3R)-3-hydroxycyclobutyl)ethyl)azanediyl)bis(N,N-didecyloctanamide)], in test [1], the “Liver Luc @ 0.3 mg/kg” value came out at 18927 ± 2102 ng/g and the “Liver Luc @ 1.0 mg/kg” value stood at 79233 ± 12026 ng/g.

On to `CCCCCCCCCCN(CCCCCCCCCC)C(=O)CCCCCCCN(CCCCCCCC(=O)N(CCCCCCCCCC)CCCCCCCCCC)C[C@H]1C[C@@H](O)C1` [(1S, 3S) I-2, 8,8′-((((1S,3S)-3-hydroxycyclobutyl)methyl)azanediyl)bis(N,N-didecyloctanamide)], for which, in test [1], the “Liver Luc @ 0.3 mg/kg” value stood at 10872 ± 2411 ng/g and the “Liver Luc @ 1.0 mg/kg” value stood at 91854 ± 15303 ng/g.

As for `CCCCCCCCCCCCN(CCCCCCCC)C(=O)CCCCCCCN(CCCCCCCC(=O)N(CCCCCCCC)CCCCCCCCCCCC)[C@H]1CC[C@@H](O)CC1` [(1S, 4S) I-62, 8,8′-(((1s,4s)-4-hydroxycyclohexyl)azanediyl)bis(N-dodecyl-N-octyloctanamide)], the “Serum IgG @ 0.3 mg/kg” value in test [2] was 48.49 ± 8.83 µg/mL.

`CCCCCCCCCCN(CCCCCCCCN(CCCCCCCCN(CCCCCCCCCC)C(=O)CCCCCCCCC)[C@H]1CC[C@@H](O)CC1)C(=O)CCCCCCCCC` [(1S, 4S) I-63, N,N′-((((1s,4s)-4-hydroxycyclohexyl)azanediyl)bis(octane-8,1-diyl))bis(N-decyldecanamide)]: in test [2], the “Serum IgG @ 0.3 mg/kg” value was 39.32 ± 8.99 µg/mL.

On to `CCCCCCCCCCN(CCCCCCCCCC)C(=O)CCCCCCCN(CCCCCCCC(=O)N(CCCCCCCCCC)CCCCCCCCCC)[C@H]1C[C@H](O)C[C@H](O)C1` [(1s, 3R, 5S) I-34, 8,8′-(((1s,3r,5s)-3,5-dihydroxycyclohexyl)azanediyl)bis(N,N-didecyloctanamide)], for which, in test [2], the “Serum IgG @ 0.3 mg/kg” value amounted to 7.06 ± 4.68 µg/mL and the “Serum IgG @ 1.0 mg/kg” value was 57.07 ± 24.86 µg/mL.

Regarding `CCCCCCCCCCN(CCCCCCCCCC)C(=O)CCCCCCCCCN(CCCCCC(=O)N(CCCCCCCCCC)CCCCCCCCCC)[C@H]1CC[C@@H](O)CC1` [(15, 4S) I-61, N,N-didecyl-10-((6-(didecylamino)-6-oxohexyl)((1s,4s)-4-hydroxycyclohexyl)amino)decanamide], in test [2], the “Serum IgG @ 0.3 mg/kg” value turned out to be 40.66 ± 9.70 µg/mL.

As to `CCCCCCCCCCN(CCCCCCCCCC)C(=O)CCCCCCCN(CCCCCCCC(=O)N(CCCCCCCCCC)CCCCCCCCCC)CC1CCC(O)C1` (stereo not shown) [Compound I-4, 8,8′-(((3-hydroxycyclopentyl)methyl)azanediyl)bis(N,N-didecyloctanamide)], in test [2], the “Serum IgG @ 0.3 mg/kg” value came out at 32.39 ± 3.12 µg/mL and the “Serum IgG @ 1.0 mg/kg” value was determined as 155.20 ± 15.34 µg/mL.

Regarding `CCCCCCCCCCN(CCCCCCCCCC)C(=O)CCCCCCCN(CCCCCCCC(=O)N(CCCCCCCCCC)CCCCCCCCCC)C1CCC(O)CC1` (stereo not shown) [Compound I-9, 8,8′-((4-hydroxycyclohexyl)azanediyl)bis(N,N-didecyloctanamide)], in test [2], the “Serum IgG @ 0.3 mg/kg” value was 35.77 ± 4.50 µg/mL.

On to `CCCCCCCCCCN(CCCCCCCCCC)C(=O)CCCCCCCN(CCCCCCCC(=O)N(CCCCCCCCCC)CCCCCCCCCC)C1CC2(CC(O)C2)C1` (stereo not shown) [Compound I-36, 8,8′-((6-hydroxyspiro[3.3]heptan-2-yl)azanediyl)bis(N,N-didecyloctanamide)], for which, in test [2], the “Serum IgG @ 0.3 mg/kg” value turned out to be 25.76 ± 8.65 µg/mL and the “Serum IgG @ 1.0 mg/kg” value stood at 171.89 ± 45.93 µg/mL.
